Results reported in patent publication US10874684B2, “Liponucleotide-based therapy for ARDS” (Ohio State Innovation Foundation, priority 2016, dated 2020).
Entries after “also recorded” stand apart in the source; their conditions may differ. Marks after values point to notes of the source that are not given here.

Experiments:
[1] = tested on: ATII cells from influenza A/WSN/33 (H1N1)-infected mice; test: Effect of influenza infection and CDP-choline treatment on ATII cell ultrastructure (transmission electron micrographs); type: in vivo, mouse
Text: FIG. 14 is a group of three transmission electron micrographs showing effects of CDP-choline treatment on ultrastructure of ATII cell lamellar bodies (composed of surfactant lipids and proteins). Relative to mock-infected controls, lamellar bodies in ATII cells from influenza A/WSN/33 (H1N1)-infected mice are smaller and have disordered lamellae.
FIG. 15 is a group of 3 transmission electron micrographs showing effects of influenza infection on ultrastructure of ATII cell mitochondria (Mi). Relative to mock-infected controls (left), Mi in ATII cells from A/WSN/33 (H1N1)-infected mice (center) are fewer in number, less electron dense, and have disordered membranes and cristae.

[2] = tested on: mice with ARDS induced by intranasal bleomycin; test: Bleomycin-induced ARDS in mice, i.p. liponucleotide treatment; type: in vivo; conditions: day 7 after intranasal bleomycin 0.1 mg/mouse; daily i.p. from days 1-6
[3] = tested on: alveolar type II (ATII) epithelial cells isolated 6 days post-influenza infection; test: Effect of influenza infection and CDP-choline treatment on mitochondrial function (Seahorse MitoStress test on isolated ATII cells); type: in vivo, mouse
Procedure: FIG. 17 is a plot showing effect of daily i.p. treatment with CDP-choline (CDP-CHO, 100 μg/mouse) from 1-5 days post-influenza infection on basal O2 consumption rate (OCR) of alveolar type II (ATII) epithelial cells isolated at 6 days post-mock infection or 6 days post-influenza infection and OCR after subsequent treatment of the same ATII cells with oligomycin (1 μM). **=P<0.005, #=P<0.001.
FIG. 18 is a plot showing effect of daily i.p. treatment with CDP-choline (CDP-CHO, 100 μg/mouse) from 1-5 days post-influenza infection on ATP production, non-mitochondrial (non-mt) respiration, and proton (H^+) leak of alveolar type II (ATII) epithelial cells isolated at 6 days post-mock infection or 6 days post-influenza infection. *=P<0.05, #=P<0.001.

[4] = tested on: influenza A/WSN/33 (H1N1)-infected mice; test: Effect of influenza infection and i.p. liponucleotide treatment on lung function; type: in vivo, mouse; conditions: for CST / HR (bpm) / RBASAL / SaO2 (%) / WET:DRY: day 6
Text: CDP-choline improved oxygenation. SaO2 increased from approximately 85% to approximately 96%. This is equivalent to an increase in PaO2 from approximately 65 mmHg to approximately 85 mmHg. It is also equivalent to an increase in O2 carrying capacity of blood (CaO2) from approximately 88% to approximately 97% of normal. Patients with an SaO2 of 96% or a […] would not require additional treatment

influenza-infected mice [5] = test: Effect of influenza infection and CDP-choline treatment on lung inflammation; type: in vivo; conditions: day 6 flu; 100 μg/mouse i.p. daily from 1-5 days post-infection
influenza-infected mice [6] = test: Treatment with CDP-choline precursors (choline, CTP) in influenza-infected mice, arterial oxygenation; type: in vivo; conditions: day 6 post-influenza infection; daily i.p. 100 μg/mouse from 1-5 days post-infection; compared with CDP-choline
Procedure: FIG. 16 is a plot showing effect of daily i.p. treatment with choline (100 μg/mouse), cytidine triphosphate (CTP, 100 μg/mouse), and choline+CTP from 1-5 days post-influenza infection on mouse O2 sats (SaO2) at day 6 post-influenza infection.

[7] = day 6 flu, 100 μg/mouse i.p. daily from 1-5 days post-infection
[8] = ATII cells isolated 6 days post-influenza infection, Seahorse MitoStress, effect on influenza-induced impairment
[9] = influenza-infected mice, 100 μg/mouse i.p. on day 5 only
[10] = influenza-infected mice, i.p. daily from 1-5 days post-infection
[11] = influenza-infected mice, i.p. daily from 1-5 days post-infection, CDP-CHO/CDP-ETH 100 μg/mouse, CDP-DAG 10 μg/mouse

Structure (SMILES): C[N+](C)(C)CCOP(=O)(O)OP(=O)(O)OC[C@H]1O[C@@H](n2ccc(N)nc2=O)C(O)C1O (some centres unmarked) [CDP-CHO, Cytidine diphosphate-choline]
- ATII CELL AREA (μm^2) [1, 7]: 53.64 ± 5.63* μm^2
- LAMELLAR BODIES/CELL [1, 7]: 8.1 ± 1.16
- LAMELLAR BODY AREA (μm^2) [1, 7]: 0.41 ± 0.04* μm^2
- MITOCHONDRIAL/CELL [1, 7]: 14.5 ± 1.78
- MIT[…] (μm^2) [1, 7]: 0.34 ± 0.01* μm^2
- ATII cell lamellar body morphology ([1]; transmission electron micrographs, A/WSN/33 (H1N1)-infected mice): improves lamellar body morphology
- ATII cell mitochondria (Mi) morphology ([1]; transmission electron micrographs, A/WSN/33 (H1N1)-infected mice, listed as CDP-choline): more electron-dense and have more normal cristae; also recorded: display normal morphology
- mouse O2 sats (SaO2), hypoxemia [2]: can attenuate hypoxemia
- mouse weight loss (% of starting body weight), cachexia [2]: no such beneficial effect
- basal O2 consumption rate (OCR), mitochondrial oxidative phosphorylation ([3]; ATII cells isolated 6 days post-influenza infection, 100 μg/mouse i.p. daily days 1-5, effect on influenza-induced impairment): reversed
- ATP production [3, 8]: reversed
- non-mitochondrial (non-mt) respiration [3, 8]: reversed
- proton (H+) leak (coupling efficiency) [3, 8]: reversed
- OCR after oligomycin (ATP synthase activity) ([3]; ATII cells isolated 6 days post-influenza infection, oligomycin 1 μM, effect on influenza-induced impairment): reversed
- MITOCHONDRIAL MEMBRANE POTENTIAL (ψm; DilC1(5) MCF) [3, 7]: 10.14 ± 2.3*
- MIT[…] PRODUCTION [3, 7]: 36.91 ± 6.82#
- PaO2 equivalent after treatment ([4]; equivalent of SaO2 increase, from approximately 65 mmHg): approximately 85 mmHg
- O2 carrying capacity of blood (CaO2) after treatment ([4]; equivalent of SaO2 increase, from approximately 88%): approximately 97 % of normal
- cardiac function ([4]; influenza-infected mice): improved cardiac function
- effects of single dose treatment late in infection versus daily treatment ([4]; influenza-infected mice): as good as those of daily treatment
- lung function ([4]; influenza-infected mice): better lung function
- pulmonary edema ([4]; influenza-infected mice): reduced pulmonary edema
- CST [4, 9]: 0.05 ± 0.006
- HR (bpm) [4, 9]: 550 ± 10 bpm
- RBASAL [4, 9]: 1.63 ± 0.22
- SaO2 (%) [4, 9]: 92.9 ± 1.5 %
- WET:DRY [4, 9]: 6.2 ± 0.2
- CST [4, 10]: 0.05 ± 0.002
- HR (bpm) [4, 10]: 570 ± 10 bpm
- RBASAL [4, 10]: 1.96 ± 0.12
- WET:DRY [4, 10]: 6.2 ± 0.4
- SaO2 (%) [4, 11]: 93.5 ± 1.0 %
- SaO2 after treatment ([4]; influenza-infected mice, increased from approximately 85%): approximately 96%
- BALF ALVEOLAR MACS (×10^6/ml) (influenza-infected mice [5]): 1.08 ± 0.21 ×10^6/ml
- BALF NEUTROPHILS (×10^6/ml) (influenza-infected mice [5]): 0.45 ± 0.07 ×10^6/ml
- BALF PC (influenza-infected mice [5]): 1.61 ± 0.45
- VIRAL TITER (log PFU/g) (influenza-infected mice [5]): 5.32 ± 0.07 log PFU/g

Structure (SMILES): Nc1ccn([C@@H]2O[C@H](COP(=O)(O)OP(=O)(O)OP(=O)(O)O)[C@@H](O)[C@H]2O)c(=O)n1 [CTP, cytidine triphosphate]
- beneficial effect on arterial oxygenation, mouse O2 sats (SaO2) (influenza-infected mice [6]): cannot be reproduced

Structure (SMILES): NCCOP(=O)(O)OP(=O)(O)OC[C@H]1O[C@@H](n2ccc(N)nc2=O)[C@H](O)[C@@H]1O [CDP-ETH, CDP-ethanolamine]
- HR (bpm) [4, 10]: 540 ± 20 bpm
- WET:DRY [4, 10]: 6.5 ± 0.4
- SaO2 (%) [4, 11]: 91.1 ± 1.5%

Structure (SMILES): CCCCCCCCCCCCCCCC(=O)OC[C@H](COP(=O)(O)OP(=O)(O)OC[C@H]1O[C@@H](n2ccc(N)nc2=O)[C@H](O)[C@@H]1O)OC(=O)CCCCCCCCCCCCCCC [CDP-DAG, CDP-diacylglycerol]
- HR (bpm) [4, 10]: 600 ± 10 bpm
- WET:DRY [4, 10]: 5.8 ± 0.1
- SaO2 (%) [4, 11]: 95.2 ± 1.6 %
